Molecules are shown by their SMILES.

In general, IC50 refers to the concentration at which inhibition is half-maximal.

For this test, the system named is T1, JNK.
T1 construct: Human JNK2α2 assay contains 1 nM enzyme; Human JNK1α1 assay contains 2 nM enzyme
Nature of the test: JNK Assay in vitro (phosphorylation of GST-ATF2 (19-96) with [γ-33P] ATP). It is filed as biochemical. To be noted: JNK isoform not stated for Table 1 (method describes human JNK1α1, JNK2α2, JNK3); Km concentrations of ATP and substrate. As to the method:
JNK activity was measured by phosphorylation of GST-ATF2 (19-96) with [γ-^33P] ATP. The enzyme reaction was conducted at Km concentrations of ATP and the substrate at final volume of 40 μl in buffer containing 25 mM HEPES, pH 7.5, 2 mM dithiothreitol, 150 mM NaCl, 20 mM MgCl2, 0.001% Tween® 20, 0.1% BSA and 10% DMSO. Human JNK2α2 assay contains 1 nM enzyme, 1 μM ATF2, 8 μM ATP with 1 uCi [γ-^33P] ATP. Human JNK1α1 assay contains 2 nM enzyme, 1 μM ATF2, 6 μM ATP with 1 μCi [γ-^33P] ATP. Human JNK3 (Upstate Biotech #14-501M) assay contains 2 nM enzyme, 1 μM ATF2, 4 μM ATP with 1 μCi [γ-^33P] ATP. The enzyme assay was carried out in the presence or absence of several compound concentrations. JNK and compound were pre-incubated for 10 min., followed by initiation of the enzymatic reaction by adding ATP and the substrate. The reaction mixture was incubated at 30° C. for 30 min. At the end of incubation, the reaction was terminated by transferring 25 μl of the reaction mixture to 150 μl of 10% glutathione Sepharose® slurry (Amersham #27-4574-01) containing 135 mM EDTA. The reaction product was captured on the affinity resin, and washed on a filtration plate (Millipore, MABVNOB50) with phosphate buffered saline for six times to remove free radionucleotide. The incorporation of ^33P into ATF2 was quantified on a microplate scintillation counter (Packard Topcount). Compound inhibition potency on JNK was measured by IC50 value generated from ten concentration inhibition curves fitted into the 3-parameter model: % inhibition=Maximum/(1+(IC50/[Inhibitor])^slope). Data were analyzed on Microsoft Excel for parameter estimation.
`CCCN1CCC[C@H](NC(=O)[C@H]2CC[C@H](Nc3nccc(-n4ccc5c(OCCCS(C)(=O)=O)cccc54)n3)CC2)C1` (stereo in doubt) [Compound 14, 4-{4-[4-(3-Methanesulfonyl-propoxy)-indol-1-yl]-pyrimidin-2-ylamino}-cyclohexanecarboxylic acid ((R)-1-propyl-piperidin-3-yl)-amide] came in with an IC50 of 89.8 nM. `CCN1CCC[C@@H](NC(=O)[C@H]2CC[C@H](Nc3nccc(-n4ccc5c(OCCCS(C)(=O)=O)cccc54)n3)CC2)C1` (stereo in doubt) [Compound 17, 4-{4-[4-(3-Methanesulfonyl-propoxy)-indol-1-yl]-pyrimidin-2-ylamino}-cyclohexanecarboxylic acid ((S)-1-ethyl-piperidin-3-yl)-amide] displayed an IC50 of 116 nM. As for `CCOC(=O)[C@@H]1CCCN(C(=O)[C@H]2CC[C@H](Nc3nccc(-n4ccc5c(OCCCS(C)(=O)=O)cccc54)n3)CC2)C1` [Compound 2, (R)-1-(4-{4-[4-(3-Methanesulfonyl-propoxy)-indol-1-yl]-pyrimidin-2-ylamino}-cyclohexanecarbonyl)-piperidine-3-carboxylic acid ethyl ester], the midpoint of inhibition, the IC50, lay at 73.4 nM.

In turn, `CCN1CCN(C(=O)[C@H]2CC[C@H](Nc3nccc(-n4ccc5c(OCC6CCS(=O)(=O)C6)cccc54)n3)CC2)C[C@H]1C` (stereo partly drawn) [Compound 3, (4-{4-[4-(1,1-Dioxo-tetrahydro-1λ^6-thiophen-3-ylmethoxy)-indol-1-yl]-pyrimidin-2-ylamino}-cyclohexyl)-((R)-4-ethyl-3-methyl-piperazin-1-yl)-methanone] yielded an IC50 of 45.9 nM.

As for `CCN1CCN(C(=O)[C@H]2CC[C@H](Nc3nccc(-n4ccc5c(OCC6CCS(=O)(=O)C6)cccc54)n3)CC2)C[C@@H]1C` (stereo partly drawn) [Compound 9, (4-{4-[4-(1,1-Dioxo-tetrahydro-1λ^6-thiophen-3-ylmethoxy)-indol-1-yl]-pyrimidin-2-ylamino}-cyclohexyl)-((S)-4-ethyl-3-methyl-piperazin-1-yl)-methanone], it took 19.4 nM to reach half-maximal inhibition (IC50).

In turn, `CCCN1CC[C@@H](NC(=O)[C@H]2CC[C@H](Nc3nccc(-n4ccc5c(OCCCS(C)(=O)=O)cccc54)n3)CC2)C1` [Compound 11, 4{4-[4-(3-Methanesulfonyl-propoxy)-indol-1-yl]-pyrimidin-2-ylamino}-cyclohexanecarboxylic acid ((R)-1-propyl-pyrrolidin-3-yl)-amide] gave an IC50 of 164 nM. In turn, `CCN1CC[C@H](NC(=O)[C@H]2CC[C@H](Nc3nccc(-n4ccc5c(OCCCS(C)(=O)=O)cccc54)n3)CC2)C1` [Compound 13, 4-{4-[4-(3-Methanesulfonyl-propoxy)-indol-1-yl]-pyrimidin-2-ylamino}-cyclohexanecarboxylic acid ((S)-1-ethyl-pyrrolidin-3-yl)-amide] registered a concentration for half-maximal inhibition (IC50) of 336 nM. Turning to `CN(CC1CCCCN1C)C(=O)[C@H]1CC[C@H](Nc2nccc(-n3ccc4c(OCCCS(C)(=O)=O)cccc43)n2)CC1` (stereo partly shown) [Compound 19, 4-{4-[4-(3-Methanesulfonyl-propoxy)-indol-1-yl]-pyrimidin-2-ylamino}-cyclohexanecarboxylic acid methyl-(1-methyl-piperidin-2-ylmethyl)-amide], the IC50 amounted to 79.6 nM.

The molecule `CCN1CCCC1CNC(=O)[C@H]1CC[C@H](Nc2nccc(-n3ccc4c(OCCCS(C)(=O)=O)cccc43)n2)CC1` (stereo partly shown) [Compound 20, 4-{4-[4-(3-Methanesulfonyl-propoxy)-indol-1-yl]-pyrimidin-2-ylamino}-cyclohexanecarboxylic acid (1-ethyl-pyrrolidin-2-ylmethyl)-amide] returned an IC50 of 81 nM.

As for `CS(=O)(=O)CCCOc1cccc2c1ccn2-c1ccnc(N[C@H]2CC[C@H](C(=O)N3C[C@@H]4C[C@@H]3CN4)CC2)n1` [Compound 21, (1R,4S)-2,5-Diaza-bicyclo[2.2.1]hept-2-yl-(4-{4-[4-(3-methanesulfonyl-propoxy)-indol-1-yl]-pyrimidin-2-ylamino}-cyclohexyl)-methanone], the IC50 was 145 nM. `CN1C2CCC1CN(C(=O)[C@H]1CC[C@H](Nc3nccc(-n4ccc5c(OCCCS(C)(=O)=O)cccc54)n3)CC1)C2` [Compound 22] registered an IC50 of 99.8 nM. `C[C@@H]1CN(C(=O)[C@H]2CC[C@H](Nc3nccc(-n4ncc5c(OCCCS(C)(=O)=O)cccc54)n3)CC2)CCN1` [Compound 24, (4-{4-[4-(3-Methanesulfonyl-propoxy)-indazol-1-yl]-pyrimidin-2-ylamino}-cyclohexyl)-((R)-3-methyl-piperazin-1-yl)-methanone]: the IC50 came to 59.7 nM. As for `C[C@H]1CN(C(=O)[C@H]2CC[C@H](Nc3nccc(-n4ncc5c(OCC6CCS(=O)(=O)C6)cccc54)n3)CC2)CCN1` (stereo partly drawn) [Compound 25, (4-{4-[4-(1,1-Dioxo-tetrahydro-1λ^6-thiophen-3-ylmethoxy)-indazol-1-yl]-pyrimidin-2-ylamino}-cyclohexyl)-((S)-3-methyl-piperazin-1-yl)-methanone], the IC50 came to 45.8 nM. For `CCOC1CC2CCC(C1)N2C(=O)[C@H]1CC[C@H](Nc2nccc(-n3ccc4c(OCCCS(C)(=O)=O)cccc43)n2)CC1` (stereo partly shown) [Compound 26, (3-Ethoxy-8-aza-bicyclo[3.2.1]oct-8-yl)-(4-{4-[4-(3-methanesulfonyl-propoxy)-indol-1-yl]-pyrimidin-2-ylamino}-cyclohexyl)-methanone; compound with formic acid], half-maximal inhibition (IC50) required 89.4 nM. Take `C[C@H]1CN(C(=O)[C@H]2CC[C@H](Nc3nccc(-n4ncc5c(OCC6CCS(=O)(=O)C6)cccc54)n3)CC2)CCN1` (stereo partly drawn) [Compound 27, (4-{4-[4-(1,1-Dioxo-tetrahydro-1λ^6-thiophen-3-ylmethoxy)-indazol-1-yl]-pyrimidin-2-ylamino}-cyclohexyl)-((S)-3-methyl-piperazin-1-yl)-methanone]: the IC50 was found to be 60.6 nM. Under `CC1(C)CN(C(=O)[C@H]2CC[C@H](Nc3nccc(-n4ccc5c(OCC6CCS(=O)(=O)C6)cccc54)n3)CC2)CCN1` (stereo partly shown) [Compound 28, (3,3-Dimethyl-piperazin-1-yl)-(4-{4-[4-(1,1-dioxo-tetrahydro-1λ^6-thiophen-3-ylmethoxy)-indol-1-yl]-pyrimidin-2-ylamino}-cyclohexyl)-methanone] stands 97.8 nM. For the molecule `CCN1CCCC(NC(=O)[C@H]2CC[C@H](Nc3nccc(-n4ccc5c(OCC6CCS(=O)(=O)C6)cccc54)n3)CC2)C1` (stereo partly shown) [Compound 29, 4-{4-[4-(1,1-Dioxo-tetrahydro-1λ^6-thiophen-3-ylmethoxy)-indol-1-yl]-pyrimidin-2-ylamino}-cyclohexanecarboxylic acid (1-ethyl-piperidin-3-yl)-amide], the IC50 was found to be 92.8 nM. Regarding `CCN1CCC[C@H]1CNC(=O)[C@H]1CC[C@H](Nc2nccc(-n3ccc4c(OCCCS(C)(=O)=O)cccc43)n2)CC1` [Compound 30, 4-{4-[4-(3-Methanesulfonyl-propoxy)-indol-1-yl]-pyrimidin-2-ylamino}-cyclohexanecarboxylic acid ((S)-1-ethyl-pyrrolidin-2-ylmethyl)-amide], the midpoint of inhibition, the IC50, lay at 85.4 nM. Under `CCN1CCC[C@@H]1CNC(=O)[C@H]1CC[C@H](Nc2nccc(-n3ccc4c(OCCCS(C)(=O)=O)cccc43)n2)CC1` [Compound 31, 4-{4-[4-(3-Methanesulfonyl-propoxy)-indol-1-yl]-pyrimidin-2-ylamino}-cyclohexanecarboxylic acid ((R)-1-ethyl-pyrrolidin-2-ylmethyl)-amide] stands 97.7 nM.
